Assays:
rat cardiac allografts [1] = experiment: Rat cardiac allograft study, Allograft Study 5, dose response (Table 23); assay type: in vivo
rat cardiac allografts [2] = experiment: Rat cardiac allograft study, Allograft Study 4 (Table 22); conditions: s.c., GG5/3 3 mg/kg, compounds 30 mg/kg;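 note: heterotopic abdominal heart transplants from Lewis × Brown Norway F1 donors into male Lewis rats, graft beating checked daily by flank palpation, rejection defined as complete stop of heartbeat, transplant day 0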
Procedure: Hearts from Lewis X Brown Norway F1 hybrids were transplanted to the abdominal great vessels of Lewis recipients using standard microvascular techniques. Both rat strains were male inbred rats, weighing 200-300 g. Food and water was available at all times except during surgical and dosing procedures. The day of transplantation was noted as day 0. Twelve hours following the last dose approximately 1 ml of blood was collected into lithium/heparin anti-coagulant tubes. If any graft was rejected prior to the last day of dosing, blood samples were taken 12 hours after dosing on the day that graft rejection was noted. All blood samples were centrifuged at 3000 rpm for 10 minutes and the plasma was harvested, frozen on dry ice and stored frozen at −20 C prior to analysis. Allograft survival in the rats was evaluated by daily palpation of the transplanted heart through the recipient's flank. Rejection was taken as the day of complete cessation of the graft's heart beat. Upon determination of rejection, the abdomen of the recipient was incised and retracted to confirm cessation of the heart beat in the transplanted heart. If cessation of the heart beat was not confirmed the abdomen was surgically closed, and the grafted heart was evaluated daily.
Cardiac allografts were established. Dosing of compounds began on day −2, 2 days prior to transplantation and continued through day +10. […] The vehicle control, 0.9% saline, pH adjusted to a value of 5, to match the dosing solution containing the N-[N-(3-pyridinesulfonyl)-L-3,3-dimethyl-4-thiaprolyl]-0-[1-methylpiperazin-4-ylcarbonyl]-L-tyrosine isopropyl ester, was administered via the same route, i.e. every 12 hours, day −2 through day +10. The antibody, GG5/3 in 0.9% saline, was administered at 3 mg/kg, s.c., on day 0, +3, +7 and +10. All GG5/3 animals received twice daily s.c. injections of 0.9% saline, every 12 hours, from day −2 through day +10. The vehicle control, 0.9% saline, was administered daily, s.c., day 0 through day +10. All dosing solutions were formulated daily at a constant dose volume of 5 ml/kg. The site of injection was rotated at each injection through four possible sites: right and left fore flank, right and left rear flank. A total of 21 allografts, amongst 5 groups, were evaluated in the study. […] Two animals within the 0.9% saline group received saline adjusted to a pH a value of 5. (The pH value of the N-[N-(3-pyridinesulfonyl)-L-3,3-dimethyl-4-thiaprolyl]-0-[1-methylpiperazin-4-ylcarbonyl]-L-tyrosine isopropyl ester dosing solution.) The remaining two animals received saline of pH 7. Group 2 consisted of 6 animals treated with the monoclonal antibody, GG5/3. […] Twelve hours following the last dose approximately 1 ml of blood was collected into lithium/heparin anti-coagulant tubes. If any graft was rejected prior to the last day of dosing, blood samples were taken 12 hours after dosing on the day that graft rejection was noted. All samples were centrifuged at 3000 rpm for 10 minutes and the plasma was harvested, frozen on dry ice and stored frozen at −20 C prior to dispatch for analysis. Allograft survival in the rats was evaluated by daily palpation of the transplanted heart through the recipient's flank. Rejection was taken as the day of complete cessation of graft's heart beat. Upon determination of rejection, the abdomen of the recipient was incised to confirm cessation of the heart beat in the transplanted heart. If cessation of the heart beat was not confirmed the abdomen was surgically closed, and the graft was evaluated daily.

## CC(C)OC(=O)[C@H](Cc1ccc(OC(=O)N2CCN(C)CC2)cc1)NC(=O)[C@H]1N([S+]([O-])c2cccnc2)CSC1(C)C (some centres unmarked) [listing 1 of 2 here]
Rat cardiac allografts [1]; day 1, 3 mg/kg s.c.
  graft survival, data normalized to group size: 100%
Rat cardiac allografts [1]; day 2, 3 mg/kg s.c.
  graft survival, data normalized to group size: 100%
Rat cardiac allografts [1]; day 3, 3 mg/kg s.c.
  graft survival, data normalized to group size: 100%
Rat cardiac allografts [1]; day 4, 3 mg/kg s.c.
  graft survival, data normalized to group size: 100%
Rat cardiac allografts [1]; day 5, 3 mg/kg s.c.
  graft survival, data normalized to group size: 100%
Rat cardiac allografts [1]; day 6, 3 mg/kg s.c.
  graft survival, data normalized to group size: 100%
Rat cardiac allografts [1]; day 7, 3 mg/kg s.c.
  graft survival, data normalized to group size: 83%
Rat cardiac allografts [1]; day 8, 3 mg/kg s.c.
  graft survival, data normalized to group size: 83%
Rat cardiac allografts [1]; day 9, 3 mg/kg s.c.
  graft survival, data normalized to group size: 50%
Rat cardiac allografts [1]; day 10, 3 mg/kg s.c.
  graft survival, data normalized to group size: 0%
Rat cardiac allografts [1]; day 11, 3 mg/kg s.c.
  graft survival, data normalized to group size: 0%
Rat cardiac allografts [1]; day 12, 3 mg/kg s.c.
  graft survival, data normalized to group size: 0%
Rat cardiac allografts [1]; day 13, 3 mg/kg s.c.
  graft survival, data normalized to group size: 0%
Rat cardiac allografts [1]; day 14, 3 mg/kg s.c.
  graft survival, data normalized to group size: 0%

## CC(C)OC(=O)[C@H](Cc1ccc(OC(=O)N2CCN(C)CC2)cc1)NC(=O)[C@H]1N(S(=O)(=O)c2cccnc2)CSC1(C)C [listing 1 of 5 here]
Rat cardiac allografts [1]; day 1, 10 mg/kg s.c.
  graft survival, data normalized to group size: 100%
Rat cardiac allografts [1]; day 2, 10 mg/kg s.c.
  graft survival, data normalized to group size: 100%
Rat cardiac allografts [1]; day 3, 10 mg/kg s.c.
  graft survival, data normalized to group size: 100%
Rat cardiac allografts [1]; day 4, 10 mg/kg s.c.
  graft survival, data normalized to group size: 100%
Rat cardiac allografts [1]; day 5, 10 mg/kg s.c.
  graft survival, data normalized to group size: 100%
Rat cardiac allografts [1]; day 6, 10 mg/kg s.c.
  graft survival, data normalized to group size: 100%
Rat cardiac allografts [1]; day 7, 10 mg/kg s.c.
  graft survival, data normalized to group size: 100%
Rat cardiac allografts [1]; day 8, 10 mg/kg s.c.
  graft survival, data normalized to group size: 100%
Rat cardiac allografts [1]; day 9, 10 mg/kg s.c.
  graft survival, data normalized to group size: 80%
Rat cardiac allografts [1]; day 10, 10 mg/kg s.c.
  graft survival, data normalized to group size: 80%
Rat cardiac allografts [1]; day 11, 10 mg/kg s.c.
  graft survival, data normalized to group size: 80%
Rat cardiac allografts [1]; day 12, 10 mg/kg s.c.
  graft survival, data normalized to group size: 80%
Rat cardiac allografts [1]; day 13, 10 mg/kg s.c.
  graft survival, data normalized to group size: 40%
Rat cardiac allografts [1]; day 14, 10 mg/kg s.c.
  graft survival, data normalized to group size: 40%

## CC(C)OC(=O)[C@H](Cc1ccc(OC(=O)N2CCN(C)CC2)cc1)NC(=O)[C@H]1N(S(=O)(=O)c2cccnc2)CSC1(C)C [listing 2 of 5 here]
Rat cardiac allografts [1]; day 1, 30 mg/kg s.c.
  graft survival, data normalized to group size: 100%
Rat cardiac allografts [1]; day 2, 30 mg/kg s.c.
  graft survival, data normalized to group size: 100%
Rat cardiac allografts [1]; day 3, 30 mg/kg s.c.
  graft survival, data normalized to group size: 100%
Rat cardiac allografts [1]; day 4, 30 mg/kg s.c.
  graft survival, data normalized to group size: 100%
Rat cardiac allografts [1]; day 5, 30 mg/kg s.c.
  graft survival, data normalized to group size: 100%
Rat cardiac allografts [1]; day 6, 30 mg/kg s.c.
  graft survival, data normalized to group size: 100%
Rat cardiac allografts [1]; day 7, 30 mg/kg s.c.
  graft survival, data normalized to group size: 100%
Rat cardiac allografts [1]; day 8, 30 mg/kg s.c.
  graft survival, data normalized to group size: 100%
Rat cardiac allografts [1]; day 9, 30 mg/kg s.c.
  graft survival, data normalized to group size: 100%
Rat cardiac allografts [1]; day 10, 30 mg/kg s.c.
  graft survival, data normalized to group size: 100%
Rat cardiac allografts [1]; day 11, 30 mg/kg s.c.
  graft survival, data normalized to group size: 100%
Rat cardiac allografts [1]; day 12, 30 mg/kg s.c.
  graft survival, data normalized to group size: 100%
Rat cardiac allografts [1]; day 13, 30 mg/kg s.c.
  graft survival, data normalized to group size: 100%
Rat cardiac allografts [1]; day 14, 30 mg/kg s.c.
  graft survival, data normalized to group size: 100%

## CC(C)OC(=O)[C@H](Cc1ccc(OC(=O)N2CCN(C)CC2)cc1)NC(=O)[C@H]1N([S+]([O-])c2cccnc2)CSC1(C)C (some centres unmarked) [listing 2 of 2 here]
Rat cardiac allografts [1]; day 0, 3 mg/kg s.c.
  number of surviving grafts: 6
Rat cardiac allografts [1]; day 1, 3 mg/kg s.c.
  number of surviving grafts: 6
Rat cardiac allografts [1]; day 2, 3 mg/kg s.c.
  number of surviving grafts: 6
Rat cardiac allografts [1]; day 3, 3 mg/kg s.c.
  number of surviving grafts: 6
Rat cardiac allografts [1]; day 4, 3 mg/kg s.c.
  number of surviving grafts: 6
Rat cardiac allografts [1]; day 5, 3 mg/kg s.c.
  number of surviving grafts: 6
Rat cardiac allografts [1]; day 6, 3 mg/kg s.c.
  number of surviving grafts: 6
Rat cardiac allografts [1]; day 7, 3 mg/kg s.c.
  number of surviving grafts: 5
Rat cardiac allografts [1]; day 8, 3 mg/kg s.c.
  number of surviving grafts: 5
Rat cardiac allografts [1]; day 9, 3 mg/kg s.c.
  number of surviving grafts: 3
Rat cardiac allografts [1]; day 10, 3 mg/kg s.c.
  number of surviving grafts: 0
Rat cardiac allografts [1]; day 11, 3 mg/kg s.c.
  number of surviving grafts: 0
Rat cardiac allografts [1]; day 12, 3 mg/kg s.c.
  number of surviving grafts: 0
Rat cardiac allografts [1]; day 13, 3 mg/kg s.c.
  number of surviving grafts: 0
Rat cardiac allografts [1]; day 14, 3 mg/kg s.c.
  number of surviving grafts: 0
Rat cardiac allografts [1]; day 15, 3 mg/kg s.c.
  graft survival, data normalized to group size: 0%
  number of surviving grafts: 0
Rat cardiac allografts [1]; day 16, 3 mg/kg s.c.
  graft survival, data normalized to group size: 16%
  number of surviving grafts: 0
Rat cardiac allografts [1]; day 17, 3 mg/kg s.c.
  graft survival, data normalized to group size: 17%
  number of surviving grafts: 0
Rat cardiac allografts [1]; day 18, 3 mg/kg s.c.
  graft survival, data normalized to group size: 18%
  number of surviving grafts: 0
Rat cardiac allografts [1]; day 19, 3 mg/kg s.c.
  graft survival, data normalized to group size: 19%
  number of surviving grafts: 0
Rat cardiac allografts [1]; day 20, 3 mg/kg s.c.
  graft survival, data normalized to group size: 20%
  number of surviving grafts: 0
Rat cardiac allografts [1]; day 21, 3 mg/kg s.c.
  graft survival, data normalized to group size: 21%
  number of surviving grafts: 0

## CC(C)OC(=O)[C@H](Cc1ccc(OC(=O)N2CCN(C)CC2)cc1)NC(=O)[C@H]1N(S(=O)(=O)c2cccnc2)CSC1(C)C [listing 3 of 5 here]
Rat cardiac allografts [2]; day 0
  number of surviving grafts: 6
Rat cardiac allografts [2]; day 1
  number of surviving grafts: 6
Rat cardiac allografts [2]; day 2
  number of surviving grafts: 6
Rat cardiac allografts [2]; day 3
  number of surviving grafts: 6
Rat cardiac allografts [2]; day 4
  number of surviving grafts: 6
Rat cardiac allografts [2]; day 5
  number of surviving grafts: 6
Rat cardiac allografts [2]; day 6
  number of surviving grafts: 6
Rat cardiac allografts [2]; day 7
  number of surviving grafts: 6
Rat cardiac allografts [2]; day 8
  number of surviving grafts: 6
Rat cardiac allografts [2]; day 9
  number of surviving grafts: 5
Rat cardiac allografts [2]; day 10
  number of surviving grafts: 4
Rat cardiac allografts [2]; day 11
  number of surviving grafts: 4
Rat cardiac allografts [2]; day 12
  number of surviving grafts: 4
Rat cardiac allografts [2]; day 13
  number of surviving grafts: 4
Rat cardiac allografts [2]; day 14
  number of surviving grafts: 4
Rat cardiac allografts [2]; day 15
  number of surviving grafts: 4
Rat cardiac allografts [2]; day 16
  number of surviving grafts: 3
Rat cardiac allografts [2]; day 17
  number of surviving grafts: 3
Rat cardiac allografts [2]; day 18
  number of surviving grafts: 3
Rat cardiac allografts [2]; day 19
  number of surviving grafts: 3

## CC(C)OC(=O)[C@H](Cc1ccc(OC(=O)N2CCN(C)CC2)cc1)NC(=O)[C@H]1N(S(=O)(=O)c2cccnc2)CSC1(C)C [listing 4 of 5 here]
Rat cardiac allografts [1]; day 0, 10 mg/kg s.c.
  number of surviving grafts: 5
Rat cardiac allografts [1]; day 1, 10 mg/kg s.c.
  number of surviving grafts: 5
Rat cardiac allografts [1]; day 2, 10 mg/kg s.c.
  number of surviving grafts: 5
Rat cardiac allografts [1]; day 3, 10 mg/kg s.c.
  number of surviving grafts: 5
Rat cardiac allografts [1]; day 4, 10 mg/kg s.c.
  number of surviving grafts: 5
Rat cardiac allografts [1]; day 5, 10 mg/kg s.c.
  number of surviving grafts: 5
Rat cardiac allografts [1]; day 6, 10 mg/kg s.c.
  number of surviving grafts: 5
Rat cardiac allografts [1]; day 7, 10 mg/kg s.c.
  number of surviving grafts: 5
Rat cardiac allografts [1]; day 8, 10 mg/kg s.c.
  number of surviving grafts: 5
Rat cardiac allografts [1]; day 9, 10 mg/kg s.c.
  number of surviving grafts: 4
Rat cardiac allografts [1]; day 10, 10 mg/kg s.c.
  number of surviving grafts: 4
Rat cardiac allografts [1]; day 11, 10 mg/kg s.c.
  number of surviving grafts: 4
Rat cardiac allografts [1]; day 12, 10 mg/kg s.c.
  number of surviving grafts: 4
Rat cardiac allografts [1]; day 13, 10 mg/kg s.c.
  number of surviving grafts: 2
Rat cardiac allografts [1]; day 14, 10 mg/kg s.c.
  number of surviving grafts: 2
Rat cardiac allografts [1]; day 15, 10 mg/kg s.c.
  graft survival, data normalized to group size: 40%
  number of surviving grafts: 2
Rat cardiac allografts [1]; day 16, 10 mg/kg s.c.
  graft survival, data normalized to group size: 20%
  number of surviving grafts: 1
Rat cardiac allografts [1]; day 17, 10 mg/kg s.c.
  graft survival, data normalized to group size: 20%
  number of surviving grafts: 1
Rat cardiac allografts [1]; day 18, 10 mg/kg s.c.
  graft survival, data normalized to group size: 20%
  number of surviving grafts: 1
Rat cardiac allografts [1]; day 19, 10 mg/kg s.c.
  graft survival, data normalized to group size: 20%
  number of surviving grafts: 1
Rat cardiac allografts [1]; day 20, 10 mg/kg s.c.
  graft survival, data normalized to group size: 20%
  number of surviving grafts: 1
Rat cardiac allografts [1]; day 21, 10 mg/kg s.c.
  graft survival, data normalized to group size: 20%
  number of surviving grafts: 1

## CC(C)OC(=O)[C@H](Cc1ccc(OC(=O)N2CCN(C)CC2)cc1)NC(=O)[C@H]1N(S(=O)(=O)c2cccnc2)CSC1(C)C [listing 5 of 5 here]
Rat cardiac allografts [1]; day 0, 30 mg/kg s.c.
  number of surviving grafts: 6
Rat cardiac allografts [1]; day 1, 30 mg/kg s.c.
  number of surviving grafts: 6
Rat cardiac allografts [1]; day 2, 30 mg/kg s.c.
  number of surviving grafts: 6
Rat cardiac allografts [1]; day 3, 30 mg/kg s.c.
  number of surviving grafts: 6
Rat cardiac allografts [1]; day 4, 30 mg/kg s.c.
  number of surviving grafts: 6
Rat cardiac allografts [1]; day 5, 30 mg/kg s.c.
  number of surviving grafts: 6
Rat cardiac allografts [1]; day 6, 30 mg/kg s.c.
  number of surviving grafts: 6
Rat cardiac allografts [1]; day 7, 30 mg/kg s.c.
  number of surviving grafts: 6
Rat cardiac allografts [1]; day 8, 30 mg/kg s.c.
  number of surviving grafts: 6
Rat cardiac allografts [1]; day 9, 30 mg/kg s.c.
  number of surviving grafts: 6
Rat cardiac allografts [1]; day 10, 30 mg/kg s.c.
  number of surviving grafts: 6
Rat cardiac allografts [1]; day 11, 30 mg/kg s.c.
  number of surviving grafts: 6
Rat cardiac allografts [1]; day 12, 30 mg/kg s.c.
  number of surviving grafts: 6
Rat cardiac allografts [1]; day 13, 30 mg/kg s.c.
  number of surviving grafts: 6
Rat cardiac allografts [1]; day 14, 30 mg/kg s.c.
  number of surviving grafts: 6
Rat cardiac allografts [1]; day 15, 30 mg/kg s.c.
  graft survival, data normalized to group size: 100%
  number of surviving grafts: 6
Rat cardiac allografts [1]; day 16, 30 mg/kg s.c.
  graft survival, data normalized to group size: 100%
  number of surviving grafts: 6
Rat cardiac allografts [1]; day 17, 30 mg/kg s.c.
  graft survival, data normalized to group size: 100%
  number of surviving grafts: 6
Rat cardiac allografts [1]; day 18, 30 mg/kg s.c.
  graft survival, data normalized to group size: 100%
  number of surviving grafts: 6
Rat cardiac allografts [1]; day 19, 30 mg/kg s.c.
  graft survival, data normalized to group size: 100%
  number of surviving grafts: 6
Rat cardiac allografts [1]; day 20, 30 mg/kg s.c.
  graft survival, data normalized to group size: 100%
  number of surviving grafts: 6
Rat cardiac allografts [1]; day 21, 30 mg/kg s.c.
  graft survival, data normalized to group size: 83%
  number of surviving grafts: 5

— patent US20060004019A1, “Steroid sparing agents and methods of using same” (priority 2004, published 2006)
